Source: patent publication US11339203B2, “Antitumor peptide and use thereof” (TOAGOSEI CO., LTD., priority 2018, dated 2022)
Where two headings read alike, the source gives them in different places. Where no end group is shown, it is not given here.

Assays:
[1] = tested on: human melanoma cell line (A2058); assay type: cell-based; settings: 48 h
Method: CAKI2 cells were cultured and adjusted to cell count of about 5×10^3 cells per single well of 96-well plate. The amount of medium at this time was made to be 100 μL per well. Next, the 96-well plate was arranged in a CO2 incubator and incubated for about 1 day (21 hours to 24 hours) under conditions of 37° C. and 5% CO2. […] Cell viability (%) was determined in the manner described below. […] Following completion of incubation, cell viability (%) was evaluated using a colorimetric method consisting of recovering the cell culture liquid containing the above-mentioned reagent together with measuring absorbance at wavelength of 450 nm based on reduction of tetrazolium salt (value corrected for absorbance at a wavelength of 650 nm: A450 to A650). More specifically, the cell viability (%) of each test cell line was calculated from the measured absorbance as a relative value based on cell viability of 100% for the measured value (measured absorbance) of the comparison test group that underwent incubation for 48 hours as described above in only medium not containing peptide. Antitumor activity was evaluated for Sample 2 in above-mentioned Test Example 1 targeted at multiple types of human-derived cultured tumor cells. […]

[2] = tested on: human kidney cancer cell line (CAKI2); assay type: cell-based; settings: for Cell Viability (%): human, 48 h
Method: The antitumor activity of each sample peptide synthesized in above-mentioned Test Example 1 was evaluated targeted in human-derived cultured tumor cells. More specifically, a human kidney cancer cell line (CAKI2) that is currently commercially available was used for the test tumor cells. CAKI2 cells were cultured and adjusted to cell count of about 5×10^3 cells per single well of 96-well plate. The amount of medium at this time was made to be 100 μL per well. Next, the 96-well plate was arranged in a CO2 incubator and incubated for about 1 day (21 hours to 24 hours) under conditions of 37° C. and 5% CO2. Subsequently, peptide-containing test media were respectively prepared for each concentration so that the concentration of each sample peptide targeted for evaluation was 12.5 μM and 25 μM followed by supplying to the wells in which the cells targeted for evaluation were cultured (namely, the wells following the above-mentioned incubation) so that the amount of media was 90 μL per well. The 96-well plate was then returned to CO2 incubator followed by incubating for 48 hours under conditions of 37° C. and 5% CO2. The number of wells (n) at each concentration in each peptide addition test group was set to 3. Thus, the values of the results indicated in the following table are the average values of the results respectively obtained for 3 test wells. Cell viability (%) was determined in the manner described below. Following completion of incubation for 48 hours as described above, the medium in each well was replaced with 100 μL of fresh medium not containing peptide followed by further adding a reagent for measuring cell proliferation in the form of “Cell Counting Kit-8” (Dojindo Laboratories) containing “water-soluble tetrazolium salt (WST-8)” as a coloring reagent at 10 μL per well. Subsequently, the 96-well plate was again returned to CO2 incubator and incubated for 1.5 hours to 2 hours under conditions of 37° C. and 5% CO2. Following completion of incubation, cell viability (%) was evaluated using a colorimetric method consisting of recovering the cell culture liquid containing the above-mentioned reagent together with measuring absorbance at wavelength of 450 nm based on reduction of tetrazolium salt (value corrected for absorbance at a wavelength of 650 nm: A450 to A650). More specifically, the cell viability (%) of each test cell line was calculated from the measured absorbance as a relative value based on cell viability of 100% for the measured value (measured absorbance) of the comparison test group that underwent incubation for 48 hours as described above in only medium not containing peptide. McCoy's 5A medium (Gibco) containing 2 mM L-glutamine, 3,000 mg/L of glucose, 100 units/mL of penicillin, 100 μg/mL of streptomycin and 10% fetal bovine serum (FBS).

How did the “Cell Viability (%)” value ([1]; 12.5 μM) turn out when “FIGNLALSDLLAGVAYTANLLLKKRTLRKNDRKKR-NH2 [Sample 2]” was run?
Its value is 6.5%.

And the “Cell Viability (%)” value ([1]; 25 μM)?
The value was 0.2%.

And the “antitumor activity (tumor cell proliferation inhibitory activity)” value ([2]; CAKI2 cells, result in words, among Samples 1 to 7)?
Its value is “superior antitumor activity”.

And the “Cell Viability (%)” value ([2]; 12.5 μM)?
Its value is 9.2%.

What about the “Cell Viability (%)” value ([2]; 25 μM) of the same substance?
The value was 0.4%.
